This note sets out measurements from ChEMBL document CHEMBL1132969, “Design, synthesis, and enzymatic evaluation of multisubstrate analogue inhibitors of Escherichia coli thymidine phosphorylase” (J Med Chem, 2000).

The inhibition is the share of the control response that was lost under treatment. High values mean a response far below the control, low ones a response near the control.

Structures are written as SMILES.

Assay [1] addresses Thymidine phosphorylase (Escherichia coli K-12) (UniProt P07650). The assay can be described thus: Inhibition of Escherichia coli Thymidine Phosphorylase at a concentration of 1000 uM after 60 minutes.
Assay [2] shares this target. The assay can be described thus: Inhibition of Escherichia coli Thymidine Phosphorylase at a concentration of 1000 uM after 20 minutes.
For assay [3] the target is unchanged. In words: Inhibition of Escherichia coli Thymidine Phosphorylase at a concentration of 1000 uM after 40 minutes.
Assay [4] has as its target Thymidine phosphorylase (Escherichia coli) (UniProt P07650). The assay can be described thus: Inhibition of Escherichia coli TPase at a concentration of 500 uM after 40 minutes.
The target is the same in assay [5]. The assay can be described thus: Inhibition of Escherichia coli TPase at a concentration of 500 uM after 60 minutes.
Assay [6] has the same target. The assay can be described thus: Inhibition of Escherichia coli TPase at a concentration of 500 uM after 20 minutes.

Chain of Thymidine phosphorylase (Escherichia coli K-12) (P07650 whole entry, looked up): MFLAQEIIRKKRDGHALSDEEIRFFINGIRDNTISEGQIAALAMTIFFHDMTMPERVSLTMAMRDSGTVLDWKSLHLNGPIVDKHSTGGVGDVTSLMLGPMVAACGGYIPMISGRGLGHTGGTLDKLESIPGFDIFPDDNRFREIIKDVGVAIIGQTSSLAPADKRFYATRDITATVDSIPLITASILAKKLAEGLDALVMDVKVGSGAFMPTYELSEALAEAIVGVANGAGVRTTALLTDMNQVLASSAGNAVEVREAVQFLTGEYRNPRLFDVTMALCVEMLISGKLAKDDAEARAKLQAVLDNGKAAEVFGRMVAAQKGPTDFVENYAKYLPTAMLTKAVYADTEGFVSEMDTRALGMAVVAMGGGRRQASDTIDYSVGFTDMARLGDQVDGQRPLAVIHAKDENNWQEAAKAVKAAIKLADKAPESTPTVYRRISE
Chain of Thymidine phosphorylase (Escherichia coli) (P07650 whole entry, looked up): as above

With `Nc1c(Br)c(=O)[nH]c(=O)n1CCCCCCCCP(=O)(O)O`, the inhibition was 89% in assay [1], 94% in assay [2] and 91% in assay [3].

For the compound `Cc1cn(CC(O)C(O)COCP(=O)(O)O)c(=O)[nH]c1=O` (stereo not given), the inhibition in assay [1], in assay [2] and in assay [3] was 0% each time.

Turning to `Cc1cn(CCCCOCP(=O)(OC(C)C)OC(C)C)c(=O)[nH]c1=O`, the inhibition in assay [1], in assay [2] and in assay [3] was 0% throughout.

Regarding `CCOP(=O)(CCCCCCCCCn1cc(C)c(=O)[nH]c1=O)OCC`, the inhibition in assay [1] came out at 2%; in assay [2], 4%; in assay [3], 3%.

For `Cc1cn(CCCCCCCCCP(=O)(O)O)c(=O)[nH]c1=O`, the inhibition in assay [1] worked out at 70%; in assay [2], 81%; in assay [3] it was 75%.

Consider `CCOP(=O)(CCCCCCCn1cc(C)c(=O)[nH]c1=O)OCC`, for which the inhibition in assay [1], in assay [2] and in assay [3] was 0% in each case.

Consider `Cc1cn(CCCCCCCCP(=O)(OC(C)C)OC(C)C)c(=O)[nH]c1=O`, for which the inhibition in assay [1], in assay [2] and in assay [3] was 0% each time.

`Cc1cn(C/C=C\COCOCP(=O)(O)O)c(=O)[nH]c1=O`: the values for the inhibition in assay [1], in assay [2] and in assay [3] were 17%, 34% and 22%, respectively.

For the compound `Cc1cn(COC/C=C\COCP(=O)(O)O)c(=O)[nH]c1=O`, the inhibition in assay [1], in assay [2] and in assay [3] was 0% in each case.

As to `Cc1cn(CCCCCCCCP(=O)(O)O)c(=O)[nH]c1=O`, the inhibition in assay [1] is 61%; in assay [2], 75%; in assay [3], 68%.

For `Cc1cn(C/C=C\COCP(=O)(O)O)c(=O)[nH]c1=O`, the inhibition in assay [1], in assay [2] and in assay [3] was 0% each time.

For the compound `Cc1cn(CCCCOCP(=O)(O)O)c(=O)[nH]c1=O`, the inhibition in assay [1] came out at 12%; in assay [2], 27%; in assay [3], 17%.

For the compound `O=c1[nH]c(=O)n(CCCCCCCCP(=O)(O)O)c2[nH]ccc12`, the inhibition was found to be 94% in assay [1], 97% in assay [2] and 96% in assay [3].

On to `Cc1cn(CCCCCCP(=O)(O)O)c(=O)[nH]c1=O`, for which the inhibition in assay [1] came out at 2%; in assay [2], 11%; in assay [3], 5%.

Take `CCOP(=O)(CCCCCCCCn1c(=O)[nH]c(=O)c2cc[nH]c21)OCC`: the inhibition turned out to be 37% in assay [4], 27% in assay [5] and 43% in assay [6].

For `Cc1cn(C/C=C\COCP(=O)(OC(C)C)OC(C)C)c(=O)[nH]c1=O`, the inhibition in assay [1], in assay [2] and in assay [3] was 0% throughout.

On to `Cc1cn(CCCCOCOCP(=O)(O)O)c(=O)[nH]c1=O`, for which the inhibition in assay [1], in assay [2] and in assay [3] was 0% throughout.

As for `Cc1cn(C/C=C\COCOCP(=O)(OC(C)C)OC(C)C)c(=O)[nH]c1=O`, the inhibition in assay [1], in assay [2] and in assay [3] was 0% in each case.

Regarding `CCOP(=O)(CCCCCCCCn1cc(C)c(=O)[nH]c1=O)OCC`, the inhibition in assay [1], in assay [2] and in assay [3] was 0% each time.

For `Cc1cn(CC(O)C(O)COCOCP(=O)(O)O)c(=O)[nH]c1=O` (stereo not given), the inhibition in assay [1], in assay [2] and in assay [3] was 0% each time.

As for `Cc1cn(CC(O)C(O)COCOCP(=O)(OC(C)C)OC(C)C)c(=O)[nH]c1=O` (stereo not given), the inhibition in assay [1], in assay [2] and in assay [3] was 0% throughout.

Turning to `Cc1cn(CC(O)C(O)COCP(=O)(OC(C)C)OC(C)C)c(=O)[nH]c1=O` (stereo not given), the inhibition in assay [1], in assay [2] and in assay [3] was 0% each time.

Take `Cc1cn(CCCCOCOCP(=O)(OC(C)C)OC(C)C)c(=O)[nH]c1=O`: the inhibition in assay [1], in assay [2] and in assay [3] was 0% each time.

Take `CCOP(=O)(CCCCCCCCn1c(N)c(Br)c(=O)[nH]c1=O)OCC`: the inhibition in assay [1] was determined as 10%; in assay [2], 21%; in assay [3], 16%.

Regarding `Cc1cn(CCCCCCCP(=O)(O)O)c(=O)[nH]c1=O`, the inhibition turned out to be 55% in assay [1], 73% in assay [2] and 63% in assay [3].
